Measurements from PubChem BioAssay AID504422 (Sanford-Burnham Center for Chemical Genomics, 2011).
Activity calls are given as the source filed them. The rule behind the calls is not given here.

system: human hepatocytes, lipid droplet formation imaging; assay: blockers of lipid droplet accumulation in hepatocytes – imaging, human hepatocytes, SAR follow-up (AID 504422)

| SMILES | IC50 |
| --- | --- |
| CCn1c(C(=O)Nc2ccc(OC)c(OC)c2)cc2sccc21 | > 10 µM (inactive) |
| CCOc1cc(CCNC(=O)c2cc3sccc3n2CC)ccc1OC | > 10 µM (inactive) |
| CCn1c(C(=O)NCc2ccc3c(c2)OCO3)cc2sccc21 | > 10 µM (inactive) |
| CCOc1ccc(CCNC(=O)c2cc3sccc3[nH]2)cc1OCC | > 10 µM (inactive) |
| COc1ccc(CNC(=O)CSc2cc(=O)n(C)c3ccccc23)cc1OC | > 10 µM (inactive) |
| COc1cc(CNC(=O)c2cc3ccsc3n2C)cc(OC)c1OC | > 10 µM (inactive) |
| O=C(NCCc1ccc2c(c1)OCO2)c1ccc(N2CCOCC2)s1 | > 10 µM (inactive) |
| CCOc1ccc(CCNC(=O)CN2CCN(Cc3ccccc3C)C2=O)cc1OCC | > 10 µM (inactive) |
| CCOc1ccc(CCNC(=O)CCc2nnc3ccc(N4CCCC4)nn23)cc1OCC | > 10 µM (inactive) |
| CCOc1ccc(CCNC(=O)c2cc3sccc3n2CC)cc1OC | > 10 µM (inactive) |
| CCOc1ccc(CCNC(=O)Cn2cccc2C(=O)c2ccccc2C)cc1OCC | > 10 µM (inactive) |
| CCOc1ccc(CCNC(=O)Cn2cccc2C(=O)c2ccccc2)cc1OCC | > 10 µM (inactive) |
| COc1ccc(CCNC(=O)c2cc3ccccc3n2C)cc1OC | > 10 µM (inactive) |
| COc1ccc(CNC(=O)c2cc(-c3ccccc3)c(N3CCOCC3)s2)cc1OC | > 10 µM (inactive) |
| CCOc1cc(CCNC(=O)c2cc(-c3ccccc3)c(N3CCOCC3)s2)ccc1OC | > 10 µM (inactive) |
| CCOc1ccc(CCNC(=O)c2cc3ccsc3n2C)cc1OC | > 10 µM (inactive) |
| CCn1c(C(=O)NCc2cc(OC)c(OC)c(OC)c2)cc2ccsc21 | > 10 µM (inactive) |
| Cn1c(=O)cc(SCC(=O)NCCc2ccc3c(c2)OCO3)c2ccccc21 | > 10 µM (inactive) |
| CCOc1ccc(CCNC(=O)CCC(=O)N2CCOc3ccc(C)cc32)cc1OCC | > 10 µM (inactive) |
| CCOc1ccc(CCNC(=O)CSc2cc(=O)n(C)c3ccccc23)cc1OC | > 10 µM (inactive) |
| CCOc1ccc(CCNC(=O)c2cc(-c3ccccc3)c(N3CCOCC3)s2)cc1OCC | > 10 µM (inactive) |
| CCn1c(C(=O)NCc2cc(OC)c(OC)c(OC)c2)cc2sccc21 | > 10 µM (inactive) |
| COc1ccc(CCNC(=O)Cn2cccc2C(=O)c2ccccc2C)cc1OC | > 10 µM (inactive) |
| CCOc1ccc(CCNC(=O)c2cc(-c3ccccc3)c(N3CCOCC3)s2)cc1OC | > 10 µM (inactive) |
| CCOc1ccc(CCNC(=O)CCC(=O)N2CCSc3ccccc32)cc1OCC | > 10 µM (inactive) |
| O=C(NCCc1ccc2c(c1)OCO2)c1cc2sccc2[nH]1 | > 10 µM (inactive) |

| SMILES | IC50 |
| --- | --- |
| CCOc1ccc(CCNC(=O)c2cc3ccsc3n2C)cc1OCC | > 10 µM (inactive) |
| CCOc1ccc(CCNC(=O)CCc2nnc3ccc(N4CCCCC4)nn23)cc1OCC | > 10 µM (inactive) |
| CCOc1ccc(CCNC(=O)CCc2nc(-c3ccc(OC)cc3)no2)cc1OCC | > 10 µM (inactive) |
| Cn1c(C(=O)Nc2ccc3c(c2)OCO3)cc2ccsc21 | > 10 µM (inactive) |
| CCOc1ccc(CCNC(=O)c2cc3ccsc3n2CC)cc1OCC | > 10 µM (inactive) |
| CCn1c(C(=O)NCCc2ccc(OC)c(OC)c2)cc2sc(Cl)cc21 | > 10 µM (inactive) |
| Cn1c(C(=O)NCCc2ccc3c(c2)OCO3)cc2ccccc21 | > 10 µM (inactive) |
| CCOc1ccc(CCNC(=O)CCC(=O)N2CCOc3ccccc32)cc1OCC | > 10 µM (inactive) |
| CCOc1ccc(CCNC(=O)CSc2cc(=O)n(CC)c3ccccc23)cc1OCC | > 10 µM (inactive) |
| Cn1c(=O)cc(SCC(=O)NCc2ccc3c(c2)OCO3)c2ccccc21 | > 10 µM (inactive) |
| CCOc1ccc(CCNC(=O)CN2C(=O)c3cccnc3Oc3ccc(C)cc32)cc1OCC | > 10 µM (inactive) |
| CCOc1ccc(CCNC(=O)c2cc3ccccc3n2C)cc1OC | > 10 µM (inactive) |
| COc1ccc(CCNC(=O)c2cc(-c3ccccc3)c(N3CCOCC3)s2)c(OC)c1OC | > 10 µM (inactive) |
| O=C(NCCc1ccc2c(c1)OCO2)c1cc(-c2ccccc2)c(N2CCOCC2)s1 | > 10 µM (inactive) |
| COc1ccc(CCNC(=O)COC(=O)c2cc(OC)c(OC)cc2OC)cc1OC | > 10 µM (inactive) |
| CCOc1ccc(CCNC(=O)c2nnc(Cc3ccc(F)cc3)o2)cc1OCC | > 10 µM (inactive) |
| COc1ccc(NC(=O)c2cc3ccsc3n2C)cc1OC | > 10 µM (inactive) |
| CCOc1cc(CCNC(=O)c2ccc(N3CCOCC3)s2)ccc1OC | > 10 µM (inactive) |
| COc1ccc(CCNC(=O)c2cc3sccc3n2C)cc1OC | > 10 µM (inactive) |
| CCOc1ccc(CCNC(=O)COC(=O)c2cc(OC)c(OC)c(OC)c2)cc1OCC | > 10 µM (inactive) |
| COc1ccc(CCNC(=O)CSc2cc(=O)n(C)c3ccccc23)cc1OC | > 10 µM (inactive) |
| CCOc1ccc(CCNC(=O)CCOc2cc(C)ccc2C)cc1OCC | > 10 µM (inactive) |
| CCn1c(C(=O)Nc2ccc3c(c2)OCO3)cc2ccsc21 | > 10 µM (inactive) |
| CCOc1cc(CCNC(=O)COc2cc(=O)n(C)c3ccccc23)ccc1OC | > 10 µM (inactive) |
| CCOc1ccc(CCNC(=O)c2cc3ccsc3n2CC)cc1OC | > 10 µM (inactive) |
| COc1ccc(CNC(=O)c2cc3ccsc3n2C)cc1OC | > 10 µM (inactive) |

| SMILES | IC50 |
| --- | --- |
| CCOc1ccc(CCNC(=O)COc2cc(=O)n(C)c3ccccc23)cc1OCC | > 10 µM (inactive) |
| Cn1c(=O)cc(SCC(=O)Nc2ccc3c(c2)OCO3)c2ccccc21 | > 10 µM (inactive) |
| CCOc1ccc(CCNC(=O)c2cc3sc(Cl)cc3n2C)cc1OCC | > 10 µM (inactive) |
| CCOc1ccc(CCNC(=O)Cn2nc(C)c3c(C)n(-c4ccccc4)nc3c2=O)cc1OCC | > 10 µM (inactive) |
| CCn1c(C(=O)NCc2ccc(OC)c(OC)c2)cc2ccsc21 | > 10 µM (inactive) |
| CCOc1cc(CCNC(=O)c2cc3ccccc3n2C)ccc1OC | > 10 µM (inactive) |
| CCOc1cc(CCNC(=O)c2cc3ccsc3n2C)ccc1OC | > 10 µM (inactive) |
| CCOc1ccc(CCNC(=O)CSc2cc(=O)n(C)c3ccccc23)cc1OCC | > 10 µM (inactive) |
| CCOc1ccc(CCNC(=O)c2cc3sccc3n2CC)cc1OCC | > 10 µM (inactive) |
| CCOc1ccc(CCNC(=O)c2cc3sccc3n2C)cc1OCC | > 10 µM (inactive) |
| COc1ccc(CNC(=O)c2ccc(N3CCOCC3)s2)cc1OC | > 10 µM (inactive) |
| CCOc1ccc(CCNC(=O)COC(=O)c2cc(OC)cc(OC)c2)cc1OCC | > 10 µM (inactive) |
| CCOc1ccc(CCNC(=O)C2CC=CCC2C(=O)OC(C)C)cc1OCC (stereo not drawn) | > 10 µM (inactive) |
| COc1ccc(CCNC(=O)c2cc3sc(Cl)cc3n2C)cc1OC | > 10 µM (inactive) |
| COc1cc(CNC(=O)CSc2cc(=O)n(C)c3ccccc23)cc(OC)c1OC | > 10 µM (inactive) |
| CCOc1ccc(CCNC(=O)CSc2cc(=O)n(C)c3cc(Cl)ccc23)cc1OCC | > 10 µM (inactive) |
| CCn1c(C(=O)Nc2ccc(OC)c(OC)c2)cc2ccsc21 | > 10 µM (inactive) |
| CCOc1ccc(CCNC(=O)Cn2ncn3nc(-c4ccc(OC)cc4)cc3c2=O)cc1OCC | > 10 µM (inactive) |
| CCOc1ccc(CCNC(=O)c2ccc(N3CCOCC3)s2)cc1OCC | > 10 µM (inactive) |
| CCOc1cc(CCNC(=O)c2cc3sccc3[nH]2)ccc1OC | > 10 µM (inactive) |
| COc1ccc(CCNC(=O)c2cc(-c3ccccc3)c(N3CCOCC3)s2)cc1OC | > 10 µM (inactive) |
| Cn1c(C(=O)NCc2ccc3c(c2)OCO3)cc2ccsc21 | > 10 µM (inactive) |
| CCOc1cc(CCNC(=O)CSc2cc(=O)n(C)c3ccccc23)ccc1OC | > 10 µM (inactive) |
| CCOc1ccc(CCNC(=O)COC(=O)c2ccc(OC)c(OC)c2OC)cc1OCC | > 10 µM (inactive) |
| CCn1c(C(=O)Nc2ccc3c(c2)OCO3)cc2sccc21 | > 10 µM (inactive) |
| CCn1c(C(=O)NCCc2ccc(OC)c(OC)c2)cc2ccsc21 | > 10 µM (inactive) |
